The text below walks through data of PMC7177638 (International Journal of Molecular Sciences, 2020).

A short description of series [1]: XPS Pt4f surface reduction of Pt(IV) to Pt(II) under X-ray irradiation. The series is classed as physicochemical. The note with it: after 30 min irradiation, calculated from Pt(IV) abundances. An excerpt: The Pt(IV) complexes were also characterized by X-ray photoelectron spectroscopy (XPS) in order to obtain information on the surface chemical composition and on the platinum speciation. Despite the surface sensitivity of the technique (topmost 5–8 nm), the analysis on homogeneous samples provides useful information on the chemical environment of all detected elements. […] Two doublets were found: one is attributed to Pt(II) (BE Pt4f7/2 = 72.9 ± 0.2 eV and BE Pt4f5/2 = 76.2 ± 0.2 eV), while the second doublet is attributed to Pt(IV) (BE Pt4f7/2 = 75.6 ± 0.2 eV and BE Pt4f5/2 = 79.0 ± 0.2 eV).
The Pt(IV)/Pt(II) relative abundance varies from case to case; moreover, if the X-ray degradation is monitored after 30 min exposure to the X-ray beam, an increase of the Pt(II) relative abundance is observed (Figure 8b).
X-ray Photoelectron Spectroscopy (XPS) analyses were run on a PHI 5000 Versa Probe II Scanning XPS Microprobe spectrometer (ULVAC PHI Inc., Kanagawa, Japan). Measurements were carried out using a monochromatic Al Kα source (X-ray spot 200 μm) at a power of 50.3 W. Wide scan and detailed spectra (Pt4f, C1s, Cl2p, N1s, O1s) were acquired in Constant Analyzer Energy (CAE) mode with a pass energy of 117.40 and 29.35 eV, respectively. An electron gun was used for charge compensation (1.0 V, 20.0 μA). Due to the X-ray sensitivity of Pt(IV) complexes, the Pt4f spectral region was acquired first. X-ray degradation kinetics experiments were performed analyzing the same sample area after 30 min. Data processing was performed by using the MultiPak software v. 9.8.0.19.

Series [2] is described as follows: Stability in solution followed by 1H-NMR (solvent-assisted photoreduction). The series is classed as physicochemical. The settings on record: DMSO-d6, room temperature, not shielded from light. An excerpt: (5.4–6.5 ppm). Most likely, compound 4 underwent a solvent-assisted reduction process favored by light, as previously observed for similar compounds such as cis,trans,cis-[PtCl2(OH)2(cis-1,4-DACH)] [19, 20]. […] This reduction/solvation could also be observed in other solvents, such as D2O and CD3OD.
As for compound 4, the reduction is probably fostered by the presence of axial chlorido ligand(s).
The ^13C NMR signals are influenced by the asymmetry of the complex with respect to the equatorial plane with two peaks at 125.4 and 125.2 ppm for the vinylic carbons, two signals at 60.2 and 59.3 ppm for the methynic carbons, and two signals at 33.1 and 32.6 ppm for the methylenic carbons (Figure S10).

Series [3] has as its system panel of human cancer cell lines (PSN-1, HCT-15, LoVo, A431, 2008). In words: MTT cytotoxicity, average over the panel of human cancer cell lines. The format is cell-based. The settings on record: 72 h. As for the experimental part:
The in vitro cytotoxic activities of compounds 1–6 were assayed on a panel of human cancer cell lines containing examples of pancreatic (PSN-1), colon (HCT-15 and LoVo), cervical (A431), and ovarian (2008) cancers. Cisplatin and oxaliplatin were used as reference compounds and were tested under the same experimental conditions.
[17, 30] Thus, the pharmacological activity decreases in the order 3 >> 1 ≈ 2 ≈ 4 > 5 > 6.
The growth inhibitory effect toward the tumor cell lines was evaluated by the MTT test. Briefly, 3-8·10^3 cells/well, depending upon the growth characteristics of the cell lines, were seeded in 96-well microplates in growth medium (100 µL) and then incubated at 37 °C in a 5% carbon dioxide atmosphere. After 24 h, the medium was removed and replaced with a fresh one containing the compound to be tested at the appropriate concentration. Triplicate cultures were established for each treatment. After 72 h, each well was treated with 10 µL of a 5 mg·mL^−1 MTT (3-(4,5-dimethylthiazol-2-yl)-2,5-diphenyltetrazolium bromide) saline solution and, after 5 h of incubation, 100 µL of a sodium dodecylsulfate (SDS) solution in HCl 0.01 M were added. Following an overnight incubation, the inhibition of cell growth induced by the tested complexes was evaluated by measuring the absorbance of each well at 570 nm using a Bio-Rad 680 microplate reader (Bio-Rad Laboratories S.r.l., Segrate (MI), Italy).

Regarding `CC(=O)[O][Pt]1([Cl])[O]C(=O)C(=O)[O]1.NC1CC=CCC1N` (racemic) [Complex 5, cis,trans,cis-[Pt(OXA)(AcO)Cl(DACHEX)]], in series [1], the “% of Reduction” value was 67%. Moreover, the “stability in solution (reduction to Pt(II) / solvation)” value in series [2] is listed as “shows a photo-assisted reduction accompanied by solvation”.
As for `NC1CC=CCC1N.O=C1[O][Pt]([OH])([Cl])[O]C1=O` (racemic) [Complex 6, cis,trans,cis-[Pt(OXA)(OH)Cl(DACHEX)]], the “% of Reduction” value in series [1] is recorded as 64%. Besides, in series [2], the “stability in solution (reduction to Pt(II) / solvation)” value is on record as “underwent reduction followed by solvation”.
With `NC1CC=CCC1N.O=C([O-])C(=O)[O-].O=C([O-])c1ccccc1.O=C([O-])c1ccccc1.[Pt+4]` (mixture of isomers) [Complex 3, cis,trans,cis-[Pt(OXA)(BzO)2(DACHEX)]], the “% of Reduction” value in series [1] is 66%. Moreover, the “times more cytotoxic than the other Pt(IV) compounds of the series” value in series [3] was “about five times more active”; in series [3] (listed as bis-benzoate derivative), 5–8. In addition, the IC50 in series [3] (mean over the cell line panel) is 260 nM.
